Results: the NIST ThermoML archive (doi:10.1021/je700236c)
Values joined by “and” are separate entries in the source; they are usually repeats but may differ in a detail not shown here. Identical values can stand only once.

Settings: Gas, Buoyancy - hydrostatic balance with magnetic suspension - two sinkers

FC(F)C(F)(F)F [pentafluoroethane]
Settings	mass density
303.15 K, 1450.2 kPa	93.212 kg/m3 and 93.199 kg/m3
303.15 K, 1481.2 kPa	96.221 kg/m3
303.15 K, 1481.3 kPa	96.231 kg/m3
303.15 K, 1505.2 kPa	98.609 kg/m3 and 98.623 kg/m3
303.15 K, 1520.5 kPa	100.175 kg/m3
303.15 K, 1520.6 kPa	100.195 kg/m3
303.15 K, 1537.3 kPa	101.933 kg/m3
303.15 K, 1537.4 kPa	101.917 kg/m3
303.15 K, 1565.1 kPa	104.879 kg/m3
303.15 K, 1565.8 kPa	104.956 kg/m3
313.15 K, 203.4 kPa	9.623 kg/m3 and 9.618 kg/m3
313.15 K, 404.5 kPa	19.688 kg/m3
313.15 K, 404.6 kPa	19.685 kg/m3
313.15 K, 602.7 kPa	30.217 kg/m3 and 30.212 kg/m3
313.15 K, 801.5 kPa	41.504 kg/m3 and 41.496 kg/m3
313.15 K, 1002 kPa	53.773 kg/m3 and 53.76 kg/m3
313.15 K, 1199.3 kPa	66.926 kg/m3 and 66.915 kg/m3
313.15 K, 1398.2 kPa	81.578 kg/m3
313.15 K, 1398.3 kPa	81.585 kg/m3
313.15 K, 1604.4 kPa	98.7 kg/m3
313.15 K, 1604.5 kPa	98.71 kg/m3
313.15 K, 1705.9 kPa	108.153 kg/m3 and 108.152 kg/m3
313.15 K, 1814.1 kPa	119.179 kg/m3 and 119.18 kg/m3
313.15 K, 1900.7 kPa	128.938 kg/m3 and 128.932 kg/m3
313.15 K, 1951.9 kPa	135.196 kg/m3 and 135.193 kg/m3
313.15 K, 1976.7 kPa	138.379 kg/m3 and 138.387 kg/m3
313.15 K, 1990.3 kPa	140.201 kg/m3 and 140.173 kg/m3
313.15 K, 2001.8 kPa	141.759 kg/m3
313.15 K, 2002 kPa	141.763 kg/m3
323.15 K, 196.2 kPa	8.951 kg/m3 and 8.953 kg/m3
323.15 K, 495.8 kPa	23.505 kg/m3 and 23.498 kg/m3
323.15 K, 798.1 kPa	39.455 kg/m3 and 39.458 kg/m3
323.15 K, 999.5 kPa	50.95 kg/m3
323.15 K, 999.6 kPa	50.954 kg/m3
323.15 K, 1199 kPa	63.156 kg/m3 and 63.162 kg/m3
323.15 K, 1399 kPa	76.417 kg/m3 and 76.411 kg/m3
323.15 K, 1599.7 kPa	90.933 kg/m3 and 90.927 kg/m3
323.15 K, 1798.9 kPa	106.993 kg/m3
323.15 K, 1799 kPa	106.996 kg/m3
323.15 K, 2000.3 kPa	125.421 kg/m3 and 125.435 kg/m3
323.15 K, 2100.4 kPa	135.708 kg/m3 and 135.695 kg/m3
323.15 K, 2201.4 kPa	147.071 kg/m3
323.15 K, 2201.5 kPa	147.082 kg/m3
323.15 K, 2301.3 kPa	159.592 kg/m3 and 159.61 kg/m3
323.15 K, 2350 kPa	166.311 kg/m3
323.15 K, 2350.1 kPa	166.298 kg/m3
323.15 K, 2400.2 kPa	173.712 kg/m3 and 173.74 kg/m3
323.15 K, 2430 kPa	178.427 kg/m3
323.15 K, 2430.1 kPa	178.468 kg/m3
323.15 K, 2451.8 kPa	182.037 kg/m3 and 182.009 kg/m3
323.15 K, 2469.3 kPa	185.047 kg/m3 and 185.021 kg/m3
